Experiments:
[1] = test system: human diploid fibroblasts (HCA cells); assay: Senescence, beta-galactosidase staining of human diploid fibroblasts; type: cell-based; conditions: for SENESCENT CELLS (%) HCA25: passage 25; for SENESCENT CELLS (%) HCA45: passage 45; for SENESCENT CELLS (%) HCA80: passage 80
Protocol: In this example, human diploid fibroblasts (HCA cells of various passage levels: passage 25—designated HCA25; passage 45—designated HCA45; passage 80—designated HCA80) were stained for β-galactosidase activity. The medium used for cell cultivation was removed, the cells were washed twice in […], and fixed in 2-3 ml of fixing solution comprised of a 2% formaldehyde and 0.2% glutaraldehyde in PBS. The cells were incubated at room temperature for 5 minutes, then washed twice with PBS. The cells were subsequently incubated at 37° C. (without CO2) for 1 to 16 hours in 2-3 ml of a solution comprising potassium ferricyanide (5 mM), potassium ferrocyanide (5 mM), MgCl2 (2 mM), X-gal (5-bromo-4-chloro-3-indolyl-β-D-galactopyranoside) (1 mg/ml), in citric/phosphate buffer, pH 6.0). […] In this experiment, senescent cells, but not other cells were stained blue due to the action of β-galactosidase on the substrate (FIG. 4).

[2] = test system: Triticum aestivum cv. Hereward leaf tips; assay: Retention of chlorophyll in excised wheat leaf tips; type: in vivo; conditions: for Activity (%) [10^−4 mol · l^−1 BAP = 100%]: chlorophyll retention at the concentration with highest activity
Protocol: Seeds of winter wheat, Triticum aestivum cv. Hereward, were washed under running water for 24 hours and then sown on vermiculite soaked with Knop's solution. They were placed in the grown chamber at 25° C. with a 16/8 h light period at 50 μmol.m^−2.s^−1. After 7 days, the first leaf was fully developed and the second leaf had started to grow. A tip section of the first leaf, approximately 35 mm long, was removed from 5 seedlings and trimmed slightly to a combined weight of 100 mg. The basal ends of the five leaf tips were placed in the wells of a microtiter polystyrene plate containing 150 μl of a cytokinin solution each. The entire plate was inserted into a plastic box lined with paper tissues soaked in distilled water to prevent leaf sections from drying out. After a 96 h incubation in the dark at 25° C., the leaves were removed and chlorophyll extracted by heating at 80° C. for 10 min in 5 ml of 80% ethanol (v/v). The sample volume was then restored to 5 ml by the addition of 80% ethanol (v/v). The absorbency of the extract was recorded at 665 nm. In addition, chlorophyll extracts from fresh leaves and leaf tips incubated in deionised water were measured. From the obtained data, the concentration with highest activity was selected for each compound tested. Relative activity of the compound at this concentration was calculated (Tab. 6). The activity obtained for 10^−4 M 6-benzylaminopurine (BAP) was postulated as 100%. The values shown are means of five replicates and the whole experiment was repeated twice. The cytokinins to be tested were dissolved in dimethylsulfoxide (DMSO) and the solution brought up to 10^−3M with distilled water. This stock was further diluted in distilled water to concentrations ranging from 10^−8M to 10^−4M.

[3] = test system: tobacco callus Nicotiana tabacum L. cv. Wisconsin 38; assay: Cytokinin-dependent tobacco callus growth; type: cell-based; conditions: fresh callus weight at the concentration with highest activity
Protocol: Cytokinin-dependent tobacco callus Nicotiana tabacum L. cv. Wisconsin 38 was maintained at 25° C. in darkness on modified Murashige-Skoog medium, containing per 1 liter: 4 μmol nicotinic acid, 2.4 μmol pyridoxine hydrochloride, 1.2 μmol thiamine, 26.6 μmol glycine, 1.37 μmol glutamine, 1.8 μmol myo-inositol, 30 g of sucrose, 8 g of agar, 5.37 μmol α-naphtylacetic acid (NAA) and 0.5 μmol benzylaminopurine (BAP). Subcultivation was carried out every three weeks. Fourteen days before the bioassay, the callus tissue was transferred to the media without 6-benzylaminopurine (BAP). Biological activity was determined from the increase in fresh callus weight after four weeks of cultivation. Five replicates were prepared for each cytokinin concentration and the entire test was repeated twice. From the obtained data, the concentration with highest activity was selected for each compound tested. Relative activity of the compound at this concentration was calculated (Tab. 6). The activity obtained for 10^−4 M 6-benzylaminopurine (BAP) was postulated as 100%. The cytokinins to be tested were dissolved in dimethylsulfoxide (DMSO) and the solution brought up to 10^−3M with distilled water. This stock was further diluted in the respective media used for the biotest to concentrations ranging from 10^−8M to 10^−4M.

[4] = test system: Amaranthus caudatus cotyledon/hypocotyl explants; assay: Amaranthus bioassay, betacyanin content; type: in vivo; conditions: betacyanin content at the concentration with highest activity
Protocol: Standard Amaranthus bioassay was performed with several modifications. The seeds of Amaranthus caudatus var. atropurpurea were surface-sterilised in 10% N-chlorobenzenesulfonamide (w/v) for 10 min and washed 5 times in deionized water. They were placed in 14 cm Petri dishes containing paper tissues saturated with deionized water. After 72 h of cultivation at 25° C. in darkness, the roots of the seedlings were cut off. The explants, consisting of two cotyledons and hypocotyls, were placed in 5 cm Petri dishes on two layers of filter paper soaked in 1 ml of incubation medium containing 10 μmol NA2HPO4-KH2PO4, pH 6.8, 5 μmol tyrosine and the cytokinin to be tested. There were 20 explants per dish. The procedure was carried out under a green safe light in a darkroom. After a 48 h of incubation at 25° C. in darkness, betacyanin was extracted by freezing the explants in 4 ml […] acetic acid. The concentration of betacyanin was determined by comparing the absorbance at 537 nm and 620 nm as follows: ΔA=[…] nm-A620 nm. From the obtained data, the concentration with highest activity was selected for each compound tested. Relative activity of the compound at this concentration was calculated (Tab. 6). […] The values shown in table 8 are means of five replicates and the entire test was repeated twice. The cytokinins to be tested were dissolved in dimethylsulfoxide (DMSO) and the solution brought up to 10^-3M with distilled water. This stock was further diluted in the respective media used for the biotest to concentrations ranging from 10^-8M to 10^-4M.

Compound	SENESCENT CELLS (%) HCA25 [1]	SENESCENT CELLS (%) HCA45 [1]	SENESCENT CELLS (%) HCA80 [1]	Activity (%) [10^−4 mol · l^−1 BAP = 100%] [2]	Activity (%) [10^−4 mol · l^−1 BAP = 100%] [3]	activity (%) [10^−5 mol · l^−1 BAP = 100%] [4]	concentration with highest activity ([2]; wheat leaf tips, 96 h in the dark)
Nc1cccc(Cl)c1CNc1ncnc2nc[nH]c12 [2-amino-6-chlorobenzylamine, 6-(2-amino-6-chlorobenzylamino)purine]	3%	4%	16%				
COc1cccc(CNc2ncnc3nc[nH]c23)c1OC [6-(2,3-dimethoxybenzylamino)purine]				109 (±5) %	8.5 (±2) %	22 (±3) %	
CSc1nc(NCc2cccc(O)c2)c2[nH]cnc2n1 [2-methylthio-6-(3-hydroxybenzylamino)purine]				50.5 (±23.5) %			
COc1cc(CNc2ncnc3nc[nH]c23)cc(OC)c1OC [6-(3,4,5-trimethoxybenzylamino)purine]				25 (±2) %	19 (±3) %	2 (±2) %	
Fc1cc(F)cc(CNc2ncnc3nc[nH]c23)c1 [6-(3,5-difluorobenzylamino)purine]				156 (±4) %	97 (±3) %	108 (±2) %	
CC(=O)Oc1cccc(CNc2ncnc3nc[nH]c23)c1 [3-acetoxybenzylamino, 6-(3-acetoxybenzylamino)purine]	4%	6%	27%				
Oc1cc(Cl)cc(O)c1CNc1ncnc2nc[nH]c12 [2,6-dihydroxy-4-chlorobenzylamino, 6-(2,6-dihydroxy-4-chlorobenzylamino)purine]	3%	3%	16%				
Oc1cc(CNc2ncnc3nc[nH]c23)c(O)cc1Cl [2,5-dihydroxy-4-chlorobenzylamino, 6-(2,5-dihydroxy-4-chlorobenzylamino)purine]	5%	4%	23%				
Brc1ccccc1CNc1ncnc2nc[nH]c12 [6-(2-bromobenzylamino)purine]				52 (±14) %	102 (±5) %	94 (±6) %	
Brc1cccc(CNc2ncnc3nc[nH]c23)c1 [6-(3-bromobenzylamino)purine]				48 (±6) %	85 (±11) %	71 (±5) %	
Clc1ccc(CNc2ncnc3nc[nH]c23)c(Cl)c1 [6-(2,4-dichlorobenzylamino)purine]				0%	11 (±3) %	19 (±8) %	
NCc1ccc(Cl)c(N)c1N [2,3-diamino-4-chlorobenzylamine]	4%	3%	17%				
COc1cc(O)c(CNc2ncnc3nc[nH]c23)cc1O [2,5-dihydroxy-4-methoxybenzylamino, 6-(2,5-dihydroxy-4-methoxybenzylamino)purine]	5%	3%	22%				
CC(=O)Oc1ccccc1CNc1ncnc2nc[nH]c12 [2-acetoxybenzylamino, 6-(2-acetoxybenzylamino)purine]	6%	5%	32%				
Oc1c(Cl)cccc1CNc1ncnc2nc[nH]c12 [2-hydroxy-3-chlorobenzylamino, 6-(2-hydroxy-3-chloroxybenzylamino)purine]	4%	3%	14%				
Oc1cccc(CNc2nc(Cl)nc3nc[nH]c23)c1 [2-chlor-6-(3-hydroxybenzylamino)purine]				140 (±13) %			10^−4 mol · l^−1
CC(=O)c1ccccc1CNc1ncnc2nc[nH]c12 [2-acetylbenzylamino, 6-(2-acetylbenzylamino)purine]	3%	4%	25%				
Nc1cc(CNc2ncnc3nc[nH]c23)ccc1Cl [3-amino-4-chlorobenzylamine, 6-(3-amino-4-chlorobenzylamino)purine]	5%	5%	22%				
COc1ccc(CNc2ncnc3nc[nH]c23)cc1OC [6-(3,4-dimethoxybenzylamino)purine]				43 (±17) %		27 (±6) %	
O=C(O)c1ccc(Nc2ncnc3nc[nH]c23)cc1Cl [3-chloro-4-carboxyanilino, 6-(3-chloro-4-carboxyanilino)purine]	5%	2%	25%				
O=C(O)c1cc(Nc2ncnc3nc[nH]c23)ccc1O [3-carboxy-4-hydroxyanilino, 6-(3-carboxy-4-hydroxyanilino)purine]	4%	2%	26%				
Oc1c(Cl)ccc(CNc2ncnc3nc[nH]c23)c1O [2,3-dihydroxy-4-chlorobenzylamino, 6-(2,3-dihydroxy-4-chlorobenzylamino)purine]	3%	3%	14%				
COc1ccc(CNc2ncnc3nc[nH]c23)c(O)c1O [2,3-dihydroxy-4-methoxybenzylamino, 6-(2,3-dihydroxy-4-methoxybenzylamino)purine]	3%	4%	17%				
COc1cc(O)c(CNc2ncnc3nc[nH]c23)c(O)c1 [2,6-dihydroxy-4-methoxybenzylamino, 6-(2,6-dihydroxy-4-methoxybenzylamino)purine]	4%	3%	13%				
c1ccc(Nc2ncnc3nc[nH]c23)cc1 [Anilino, 6-anilinopurine]	3%	4%	27%				
CC(=O)c1cccc(CNc2ncnc3nc[nH]c23)c1 [3-acetylbenzylamino, 6-(3-acetylbenzylamino)purine]	5%	5%	28%				
Nc1nc(NCc2cccc(O)c2)c2[nH]cnc2n1 [2-amino-6-(3-hydroxybenzylamino)purine]				121 (±7) %			
